From paper PMC11892714 (OTA International, 2025) come the findings set out here.

This data set is described as follows: Vancomycin pharmacokinetics, serum concentration after IO vs IV delivery. It counts as in vivo, New Zealand White rabbits. Conditions: rabbit, samples T0-T6, LC-MS/MS (Fig. 7A).

In the case of `CN[C@H](CC(C)C)C(=O)N[C@H]1C(=O)N[C@@H](CC(N)=O)C(=O)N[C@H]2C(=O)N[C@H]3C(=O)N[C@H](C(=O)N[C@H](C(=O)O)c4cc(O)cc(O)c4-c4cc3ccc4O)[C@H](O)c3ccc(c(Cl)c3)Oc3cc2cc(c3O[C@@H]2O[C@H](CO)[C@@H](O)[C@H](O)[C@H]2O[C@H]2C[C@](C)(N)[C@H](O)[C@H](C)O2)Oc2ccc(cc2Cl)[C@H]1O` [vancomycin], the “Serum vancomycin profile across time, IO delivery” value (30 mg/kg IO over 30 min) is listed as “slight peak but remained at relatively consistent serum levels across time points”. For the same compound, for the setting “30 mg/kg IV over 30 min”, the “Serum vancomycin profile across time, IV delivery” value is listed as “high systemic peak soon after bolus delivery with a steady decline across time”.
